Laboratory results: ChEMBL document CHEMBL5390201, “The Natural Alkaloid (-)-N-Hydroxyapiosporamide Suppresses Colorectal Tumor Progression as an NF-κB Pathway Inhibitor by Targeting the TAK1-TRAF6 Complex” (J Nat Prod, 2023)
Calls of active or inactive are those of the source. The calls are words filed in the database; no cut-off is given here.

How the values were obtained:
RAW264.7 = experiment: Inhibition of LPS-induced NFkappaB activation in mouse RAW264.7 cells assessed as inhibition of NO production preincubated for 24 hrs followed by LPS stimulation for 24 hrs; type: cell-based; conditions: dose 0.125-1 µM, time 48.0 hrs
HT-29 [1] = experiment: Antitumor activity against human HT-29 cells xenografted in athymic nude BALB/c mouse assessed as induction of autophagy by measuring increase in LC3B expression in tumor at 15 mg/kg, ip administered every other day and measured after 14 days by immunohistochemistry analysis; type: functional, organism-based; conditions: time 14.0 day
HCT-116 [2] = experiment: Induction of apoptosis in human HCT-116 cells assessed as late apoptotic cells at 5 uM incubated for 24 hrs by Annexin V-FITC/PI staining based flow cytometric analysis (reference value: 16.9 %); type: functional
[3] = Cmax in Sprague-Dawley rat at 10 mg/kg, iv measured for 5 mins by HPLC-MS/MS analysis; type: ADME, organism-based; set-up: time 5 min, dose 10 mg/kg, route iv; conditions: in vivo
Mus musculus [4] = experiment: In vivo inhibition of NFkappaB activation in LPS-induced BALB/c mouse model of endotoxin shock assessed as inhibition of TNF-alpha mRNA expression in liver at 5 mg/kg, ip pretreated for 4 hrs followed by LPS stimulation for 1 hr by RT-PCR analysis; type: functional, organism-based; conditions: time 5.0 hrs
HCT-116 [5] = experiment: Inhibition of colony formation in human HCT-116 cells at 0.25 to 10 uM incubated for 24 hrs and measured after 14 days by crystal violet staining based assay; type: functional, cell-based; conditions: dose 0.25-10 µM, time 14.0 day
HCT-116 [6] = experiment: Induction of apoptosis in human HCT-116 cells assessed as early apoptotic cells at 1 uM incubated for 24 hrs by Annexin V-FITC/PI staining based flow cytometric analysis (reference value: 7.22 %); type: functional
Mus musculus [7] = experiment: Anti-inflammatory activity in AOM/DSS-induced BALB/c mouse model inflammatory bowel disease assessed as reduction in transformation into adenocarcinoma at 10 mg/kg, ip pretreated with AOM for 7 days further replaced with DSS for 7 days and repeated for 2 times followed by every 2 days compound treatment for […] starting from day 50 by H and E staining based analysis; type: functional, organism-based; conditions: time 21.0 day
HT-29 [8] = experiment: Induction of cell cycle arrest in human HT-29 cells assessed as accumulation of cells at G0/G1 phase at 10 uM by RNase/PI staining based flow cytometry analysis (reference value: 50.73 %); type: functional
[9] = Toxicity in athymic nude BALB/c mouse xenografted with human HCT-116 cells assessed as pathological changes in kidney at 5 to 15 mg/kg, ip administered every other day and measured after 14 days by hematoxylin and eosin staining-based microscopic analysis; type: organism-based; conditions: in vivo, 336 h, dose 5-15 mg/kg, time 14 day
HT-29 [10] = experiment: Induction of apoptosis in human HT-29 cells assessed as necrotic cells at 5 uM incubated for 24 hrs by Annexin V-FITC/PI staining based flow cytometric analysis (reference value: 0.37 %); type: functional
HCT-116 [11] = experiment: Induction of autophagic flux in human HCT-116 cells assessed as increase in LC3I to LC3II conversion preincubated with chloroquine for 1 hr followed by compound addition and measured after 24 hrs by Western blot analysis; type: functional, cell-based
HCT-116 [12] = experiment: Antitumor activity against human HCT-116 cells xenografted in athymic nude BALB/c mouse assessed as reduction in tumor weight at 5 to 15 mg/kg, ip administered every other day and measured every other day for 16 days; type: functional, organism-based; conditions: dose 5-15 mg/kg, time 16.0 day
HCT-116 [13] = experiment: Induction of apoptosis in human HCT-116 cells assessed as viable cells at 5 uM incubated for 24 hrs by Annexin V-FITC/PI staining based flow cytometric analysis (reference value: 74.3 %); type: functional; conditions: read-out: Activity
HCT-116 [14] = experiment: Induction of apoptosis in human HCT-116 cells assessed as late apoptotic cells at 10 uM incubated for 24 hrs by Annexin V-FITC/PI staining based flow cytometric analysis (reference value: 2.9 %); type: functional
[15] = target: Nuclear factor NF-kappa-B complex (Homo sapiens) (UniProt Q00653+P19838+Q04206); experiment: Inhibition of TNF-alpha induced NFkappaB activation in human HCT-116 cells assessed as downregulation of A20 gene expression pretreated for 24 hrs followed by TNFalpha stimulation and measured after 2 hrs by quantitative RT-PCR analysis; type: cell-based; conditions: dose 1-10 µM, time 26.0 hrs
Mus musculus [16] = experiment: In vivo inhibition of NFkappaB activation in athymic BALB/c mouse xenografted with human HT-29 cells assessed as reduction in A20 gene expression in tumor at 5 to 15 mg/kg, ip administered every other day and measured after 14 days by qRT-PCR analysis; type: functional, organism-based; conditions: dose 5-15 mg/kg, time 14.0 day
HCT-116 [17] = experiment: Induction of cell cycle arrest in human HCT-116 cells assessed as accumulation of cells at G2/M phase at 10 uM by RNase/PI staining based flow cytometry analysis (reference value: 23.15 %); type: functional
HCT-116 [18] = experiment: Induction of apoptosis in human HCT-116 cells assessed as late apoptotic cells at 0.5 uM incubated for 24 hrs by Annexin V-FITC/PI staining based flow cytometric analysis (reference value: 2.9 %); type: functional
Cell membrane = experiment: Disruption of mitochondrial membrane potential in human HT-29 cells at upto 10 uM measured after 24 hrs by JC-1 staining based fluorescence microscopy; type: subcellular
Mus musculus [19] = experiment: In vivo inhibition of NFkappaB activation in AOM/DSS-induced inflammatory bowel disease BALB/c mouse model assessed as inhibition of serum IL-8 production at 5 to 10 mg/kg, ip pretreated with AOM for 7 days further replaced with DSS for 7 days and repeated for 2 times followed by every 2 days compound treatment for […] starting from day 50 by ELISA; type: functional, organism-based; conditions: dose 5-10 mg/kg, time 21.0 day
HT-29 [20] = experiment: Induction of cell cycle arrest in human HT-29 cells assessed as decrease in Cdc25c protein expression upto 10 uM incubated for 24 hrs by Western blot analysis; type: functional, cell-based
HCT-116 [21] = experiment: Induction of apoptosis in human HCT-116 cells assessed as early apoptotic cells at 10 uM incubated for 24 hrs by Annexin V-FITC/PI staining based flow cytometric analysis (reference value: 7.22 %); type: functional
[22] = Cmax in Sprague-Dawley rat at 10 mg/kg, ip measured for 240 mins by HPLC-MS/MS analysis; type: ADME, organism-based; set-up: time 240 min, dose 10 mg/kg, route ip; conditions: in vivo
HT-29 [23] = experiment: Cytotoxicity against human HT-29 cells assessed as inhibition of cell growth incubated for 24 hrs by SRB assay; type: functional, cell-based; conditions: HT-29, 24 h
HT-29 [24] = experiment: Induction of apoptosis in human HT-29 cells assessed as necrotic cells at 0.25 uM incubated for 24 hrs by Annexin V-FITC/PI staining based flow cytometric analysis (reference value: 0.14 %); type: functional
HCT-116 [25] = experiment: Antitumor activity against human HCT-116 cells xenografted in athymic nude BALB/c mouse assessed as induction of autophagy by measuring reduction in p62 expression in tumor at 15 mg/kg, ip administered every other day and measured after 14 days by immunohistochemistry analysis; type: functional, organism-based; conditions: time 14.0 day
HCT-116 [26] = experiment: Induction of apoptosis in human HCT-116 cells assessed as late apoptotic cells at 0.25 uM incubated for 24 hrs by Annexin V-FITC/PI staining based flow cytometric analysis (reference value: 2.9 %); type: functional
HT-29 [27] = experiment: Induction of apoptosis in human HT-29 cells assessed as necrotic cells at 5 uM incubated for 24 hrs by Annexin V-FITC/PI staining based flow cytometric analysis (reference value: 0.14 %); type: functional
HCT-116 [28] = experiment: Induction of cell cycle arrest in human HCT-116 cells assessed as accumulation of cells at S phase at 1 uM by RNase/PI staining based flow cytometry analysis (reference value: 43.77 %); type: functional

Chain of Nuclear factor NF-kappa-B complex (Homo sapiens) (P19838 whole entry, looked up): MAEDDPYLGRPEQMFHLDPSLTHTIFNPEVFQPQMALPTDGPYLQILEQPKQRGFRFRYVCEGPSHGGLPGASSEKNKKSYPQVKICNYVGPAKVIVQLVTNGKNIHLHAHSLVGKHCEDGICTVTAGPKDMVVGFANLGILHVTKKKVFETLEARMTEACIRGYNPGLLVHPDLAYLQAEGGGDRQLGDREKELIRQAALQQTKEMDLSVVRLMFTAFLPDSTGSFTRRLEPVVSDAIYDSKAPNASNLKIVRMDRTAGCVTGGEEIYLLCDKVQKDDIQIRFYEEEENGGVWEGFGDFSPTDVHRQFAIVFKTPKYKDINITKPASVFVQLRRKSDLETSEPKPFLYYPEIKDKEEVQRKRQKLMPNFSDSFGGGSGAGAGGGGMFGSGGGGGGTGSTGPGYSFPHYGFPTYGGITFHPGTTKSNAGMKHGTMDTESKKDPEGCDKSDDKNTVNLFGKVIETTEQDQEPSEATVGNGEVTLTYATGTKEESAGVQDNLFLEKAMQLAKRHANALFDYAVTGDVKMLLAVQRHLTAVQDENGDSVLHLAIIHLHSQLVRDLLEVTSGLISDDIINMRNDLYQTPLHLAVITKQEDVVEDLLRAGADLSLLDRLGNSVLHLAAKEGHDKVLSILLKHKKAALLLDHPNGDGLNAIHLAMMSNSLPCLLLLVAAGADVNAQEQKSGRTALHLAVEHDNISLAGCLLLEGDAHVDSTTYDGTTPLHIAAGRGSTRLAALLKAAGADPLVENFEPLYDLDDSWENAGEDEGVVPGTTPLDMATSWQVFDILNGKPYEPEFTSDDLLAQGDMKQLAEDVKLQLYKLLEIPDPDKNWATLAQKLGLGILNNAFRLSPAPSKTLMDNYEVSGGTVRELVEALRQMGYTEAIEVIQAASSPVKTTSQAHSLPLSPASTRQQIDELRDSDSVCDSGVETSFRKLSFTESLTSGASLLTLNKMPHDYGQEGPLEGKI
Chain of Nuclear factor NF-kappa-B complex (Homo sapiens) (Q00653 whole entry, looked up): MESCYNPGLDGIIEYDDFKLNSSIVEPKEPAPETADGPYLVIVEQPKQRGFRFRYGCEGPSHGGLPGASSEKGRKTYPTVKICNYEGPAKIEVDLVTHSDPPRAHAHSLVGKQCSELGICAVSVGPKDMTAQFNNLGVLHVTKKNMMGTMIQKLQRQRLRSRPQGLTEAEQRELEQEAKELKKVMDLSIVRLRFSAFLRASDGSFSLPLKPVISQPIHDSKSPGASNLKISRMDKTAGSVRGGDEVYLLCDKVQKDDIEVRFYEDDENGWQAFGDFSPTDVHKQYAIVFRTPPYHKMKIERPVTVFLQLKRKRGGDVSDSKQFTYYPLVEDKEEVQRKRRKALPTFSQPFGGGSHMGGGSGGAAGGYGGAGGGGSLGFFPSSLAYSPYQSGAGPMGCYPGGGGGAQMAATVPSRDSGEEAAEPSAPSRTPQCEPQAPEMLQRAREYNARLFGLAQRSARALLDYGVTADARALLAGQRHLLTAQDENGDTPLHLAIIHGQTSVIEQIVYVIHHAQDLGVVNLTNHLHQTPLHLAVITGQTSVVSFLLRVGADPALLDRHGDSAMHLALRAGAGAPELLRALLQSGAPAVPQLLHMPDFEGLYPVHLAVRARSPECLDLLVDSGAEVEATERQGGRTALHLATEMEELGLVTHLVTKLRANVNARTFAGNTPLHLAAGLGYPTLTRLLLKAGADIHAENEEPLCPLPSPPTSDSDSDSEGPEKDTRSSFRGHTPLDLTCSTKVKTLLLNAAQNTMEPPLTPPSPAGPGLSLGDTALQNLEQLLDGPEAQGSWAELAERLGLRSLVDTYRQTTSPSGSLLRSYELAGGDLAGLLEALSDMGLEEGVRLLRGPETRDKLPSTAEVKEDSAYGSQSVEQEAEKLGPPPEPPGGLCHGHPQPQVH
Chain of Nuclear factor NF-kappa-B complex (Homo sapiens) (Q04206 whole entry, looked up): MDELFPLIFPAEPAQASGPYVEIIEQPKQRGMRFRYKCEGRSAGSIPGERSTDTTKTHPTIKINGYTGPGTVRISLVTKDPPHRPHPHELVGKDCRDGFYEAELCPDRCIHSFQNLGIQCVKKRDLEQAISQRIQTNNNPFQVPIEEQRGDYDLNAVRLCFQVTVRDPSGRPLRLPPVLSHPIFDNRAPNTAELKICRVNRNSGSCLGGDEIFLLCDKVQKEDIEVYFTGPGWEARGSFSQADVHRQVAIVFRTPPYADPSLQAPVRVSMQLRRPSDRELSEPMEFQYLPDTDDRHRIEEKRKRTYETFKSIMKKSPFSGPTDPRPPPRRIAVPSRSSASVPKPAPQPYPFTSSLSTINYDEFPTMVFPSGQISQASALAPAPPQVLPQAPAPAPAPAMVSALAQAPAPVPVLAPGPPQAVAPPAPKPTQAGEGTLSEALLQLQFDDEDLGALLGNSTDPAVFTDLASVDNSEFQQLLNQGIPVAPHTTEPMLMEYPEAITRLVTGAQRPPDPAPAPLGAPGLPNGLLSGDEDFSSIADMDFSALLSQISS

## C[C@@H]1CC[C@H]2[C@H](C(=O)c3c(O)c([C@@]4(O)CC[C@@H](O)[C@H]5O[C@H]54)cn(O)c3=O)[C@H](C)C=C[C@@H]2C1
RAW264.7
  inhibition: Dose-Dependent Effect
HT-29 [1]
  Activity: Active
HCT-116 [2]
  Activity: 78.5%
[3]
  Cmax: 13200 ng/mL
Mus musculus [4]
  inhibition: Active
HCT-116 [5]
  inhibition: Active
HCT-116 [6]
  Activity: 18.6%
Mus musculus [7]
  Activity: Active
HT-29 [8]
  Activity: 72.58%
[9]
  Activity: Non-Toxic
HT-29 [10]
  Activity: 0.29%
HCT-116 [11]
  Activity: Active
HCT-116 [12]
  Activity: Active
HCT-116 [13]
  viability at 5 µM: 15.6%
HCT-116 [14]
  Activity: 75%
[15]
  inhibition: Dose-Dependent Effect
Mus musculus [16]
  inhibition: Active
HCT-116 [17]
  Activity: 14.17%
HCT-116 [18]
  Activity: 32.8%
Cell membrane
  Activity: Active
Mus musculus [19]
  inhibition: Active
HT-29 [20]
  Activity: Active
HCT-116 [21]
  Activity: 12.3%
[22]
  Cmax: 4590 ng/mL
HT-29 [23]
  IC50: 610 nM
HT-29 [24]
  Activity: 0.1%
HCT-116 [25]
  Activity: Active
HCT-116 [26]
  Activity: 28.1%
HT-29 [27]
  Activity: 0.22%
HCT-116 [28]
  Activity: 43.65%
